Format in all cases: cell-based
The test system of one assay is CH-17-0098. Nature of the assay: Cell viability, bile duct PDX CH-17-0098. The procedure:
(§1) PDX-derived cell cultures were obtained from tumors explanted from mice and isolated by mechanical and enzymatic dissociation. […] Cells were harvested and seeded in 96-wells plates at a density of 1.25 to 5×10^3 cells/well for cytotoxicity assays. Cells were incubated 48 h at 37° C. prior to addition of test molecules and vehicle (DMSO, 0.1%) at desired final concentrations. Cell viability was assessed before drugs' addition (To) and 5 days after test molecules addition by measuring ATP cell content using CellTiter-Glo® Luminescent Cell Viability Assay (Promega) according to the manufacturer's instructions. Luciferase activity was measured on a luminometer (PerkinElmer® EnVision™). Each concentration of compounds was tested in triplicate.
(§2) Viability was calculated as a percentage of ATP value compared to vehicle treated controls.
(§3) For PDX primary cell cultures, the tumour tissue was washed with PBS containing antibiotic-antimycotic and non-tumour tissue and necrotic tumour tissues were separated. The tumour tissue was transferred to a new dish and cut into 1˜2 mm^3 fragments, resuspended in RPMI-1640 medium and centrifuged at 1,200 rpm for 6 min at room temperature. The pelleted material was resuspended with 15 mL of Tumour Cell Digestion Solution and incubated at 37° C. for 1 hour with agitation. […]

In another assay the test system is MCF-7. Nature of the assay: Cell viability assay, MCF-7. The following applies: breast carcinoma cell line MCF-7. The procedure:
(§4) Antitumor activity of the compounds and doxorubicin as a positive control was assessed by using the CellTiter-Blue Cell Viability Assay (Promega, #G8082) or CellTiter-Glow® Luminescent Cell Viability assay (Promega #G7572) according to the manufacturer's instructions. The compounds were tested at 5 or 6 concentrations in half-log increments (highest concentration 30 μM or 100 μM) in duplicate or triplicate well conditions.
(§5) Tumor cells were grown at 37° C. in a humidified atmosphere with 5% CO2 in RPMI 1640 or DMEM medium, supplemented with 10% (v/v) fetal calf serum and 50 μg/ml gentamicin for up to 20 passages, and were passaged once or twice weekly. Cells were harvested using TrypLE or PBS buffer containing 1 mM EDTA, and the percentage of viable cells was determined using a CASY Model TI cell counter (OMNI Life Science). Cells were harvested from exponential phase cultures, counted and plated in 96 well flat-bottom microtiter plates at a cell density depending on the cell line's growth rate (4,000-20,000 cells/well depending on the cell line's growth rate, up to 60,000 for hematological cancer cell lines) in RPMI 1640 or DMEM medium supplemented with 10% (v/v) fetal calf serum and 50 μg/ml gentamicin (140 μl/well). […] Viability of cells was quantified by the CellTiter-Blue® cell viability assay (Promega G8081) or CellTiter-Glow® Luminescent Cell Viability assay (Promega #G7572). […]

The next assay relates to BR-05-0399. Description: Cell viability, breast PDX BR-05-0399. The method, then:
as §1, §2, §3

Another assay concerns BR-05-0014E. Nature of the assay: Cell viability, breast PDX BR-05-0014E. The method, then:
as §1, §2, §3

A further assay deals with HCT-116. Nature of the assay: Cell viability assay, HCT-116. The following applies: colon carcinoma cell line HCT-116. The procedure: as §4, §5
The next assay concerns LoVo. Description: Cell viability assay, LoVo. As to conditions: colon carcinoma cell line LoVo. The procedure:
as §4, §5

In another assay the test system is HT-29. Description: Cell viability assay, HT-29. As to conditions: colon carcinoma cell line HT-29. The method, then:
as §4, §5

The subject of another assay is HCT-15. Nature of the assay: Cell viability assay, HCT-15. As to conditions: colon carcinoma cell line HCT-15. The procedure: as §4, §5
Another assay deals with CO-04-0722. Description: Cell viability, colon PDX CO-04-0722. The method, then: as §1, §2, §3
For the next assay, the system named is CO-04-0701. Nature of the assay: Cell viability, colon PDX CO-04-0701. The procedure: as §1, §2, §3
A further assay concerns ES-06-0002. Description: Cell viability, esophagus PDX ES-06-0002. The procedure:
as §1, §2, §3

Another assay has as its system HN-13-0020. Description: Cell viability, head and neck PDX HN-13-0020. The method, then: as §1, §2
(§6) For PDX primary cell cultures, the tumour tissue was washed with PBS containing antibiotic-antimycotic and non-tumour tissue and necrotic tumour tissues were separated. The tumour tissue was transferred to a new dish and cut into 1˜2 mm^3 fragments, resuspended in RPMI-1640 medium and centrifuged at 1,200 rpm for 6 min at room temperature. The pelleted material was resuspended with 15 mL of Tumour Cell Digestion Solution and incubated at 37° C. for 1 hour with agitation. Following further addition of media, centrifugation and passage through a 70 μm cell strainer, the homogenous cell mixture was layered onto 15 mL of Ficoll-Paque PLUS in a 50 mL conical tube and centrifuged for 15 min at 1,600 rpm. The interface cells were collected, washed with media, separated by centrifugation at 1,200 rpm. The cell pellet was resuspended in serum free media supplemented with growth factors. 10,000 cells/wells were plated in a 96 well plate and incubated at 37° C., 5% CO2, 95% air and 100% relative humidity overnight. The cytotoxicity assay was conducted as above.
(§7) Sigmoidal concentration-response curves were fitted to the data points (test-versus-control, T/C values) obtained for each tumor model using GraphPad prism 5.02 software.

In another assay the test system is KI-12-0062. Nature of the assay: Cell viability, kidney PDX KI-12-0062. The procedure:
as §1, §2, §6, §7

In another assay the test system is LU-01-0027. Nature of the assay: Cell viability, lung PDX LU-01-0027. The method, then: as §1, §2, §3
For another assay, the system named is LU-01-0604. Description: Cell viability, lung PDX LU-01-0604. The method, then: as §1, §2, §3
The test system of a further assay is OVCAR-3. Nature of the assay: Cell viability assay, OVCAR-3. The following applies: ovarian carcinoma OVCAR-3. The procedure:
as §4, §5

In another assay the test system is PC-3. Nature of the assay: Cell viability assay, PC-3. As to conditions: prostate carcinoma cell line PC-3. The procedure:
as §4, §5

The subject of the next assay is ME-21-0028. Nature of the assay: Cell viability, skin melanoma PDX ME-21-0028. The procedure: as §1, §2, §6, §7
Another assay relates to ST-02-0173. Nature of the assay: Cell viability, stomach PDX ST-02-0173. The method, then: as §1, §2, §3
[1] abbreviates: head and neck PDX HN-13-0020, read-out: IC50.
Where [2] appears, read: kidney PDX KI-12-0062, read-out: IC50.
Where [3] appears, read: skin melanoma PDX ME-21-0028, read-out: IC50.

We go through 2 compounds from patent US20240124503A1, “HETEROAROMATIC PHOSPHONIUM SALTS AND THEIR USE TREATING CANCER” (FLORATEK PHARMA S.A., priority 2021, published 2024).

Where two headings read alike, the source gives them in different places.

As usually defined, the IC50 is the concentration that inhibits the measured activity by half.

With `COc1c(O)ccc2c(=O)c(O)c(-c3ccc(CCCC[P+](c4ccccc4)(c4ccccc4)c4ccccc4)cc3)oc12` [SND190, (4-(4-(3,7-Dihydroxy-8-methoxy-4-oxo-4H1-chromen-2-yl)phenyl)butyl)triphenylphosphonium bromide], the IC50 with CH-17-0098 was determined as 4 µM; with MCF-7 (Homo sapiens, MCF7) it was 3.91 µM; in the assay on BR-05-0399, 5.4 µM; with BR-05-0014E, 6.6 µM; with HCT-116 (Homo sapiens), 0.81 µM; in the assay on LoVo (Homo sapiens), 2.49 µM. Also, the IC50 was found to be 5.78 µM in the assay on HT-29 (Homo sapiens); 15 µM in the assay on HCT-15 (Homo sapiens); 4.4 µM in the assay on CO-04-0722; 14.7 µM in the assay on CO-04-0701; 4.9 µM with ES-06-0002; 2.26 µM in the assay on HN-13-0020 (setting [1]). Also, the IC50 with HN-13-0020 (summary of Table 10, read-out: IC50, head and neck PDX growth) was below 5 µM; with KI-12-0062 (setting [2]), 15.1 µM; in the assay with KI-12-0062 (text summary of Table 11 (kidney PDX), read-out: IC50, kidney PDX growth), below 20 µM; in the assay on LU-01-0027 it was 4 µM; with LU-01-0604 it was 2 µM; with OVCAR-3 (Homo sapiens), 3.81 µM. The IC50 in the assay with PC-3 (Homo sapiens) is 1.69 µM; with ME-21-0028 (setting [3]), 2.2 µM; in the assay with ME-21-0028 (text summary of Table 21, read-out: IC50, skin melanoma PDX growth) it was below 20 µM; with ST-02-0173, 11 µM.
For the compound `O=c1cc(-c2ccc(CCC[P+](c3ccccc3)(c3ccccc3)c3ccccc3)cc2)oc2c(O)c(O)ccc12` [SND200, (3-(4-(7,8-Dihydroxy-4-oxo-4H1-chromen-2-yl)phenyl)propyl)triphenylphosphonium bromide], the IC50 in the assay on CH-17-0098 is 7.5 µM; in the assay on MCF-7, 1.68 µM; in the assay with BR-05-0399, 14.9 µM; in the assay with BR-05-0014E, 19 µM; in the assay with HCT-116 it was 1.48 µM; with LoVo, 0.64 µM. The IC50 with HT-29 is 3.31 µM; in the assay on HCT-15, 7.49 µM; with CO-04-0722 it was 9.8 µM; in the assay with CO-04-0701, 15.1 µM; in the assay with ES-06-0002, 11.6 µM; in the assay on HN-13-0020 (setting [1]), 4.1 µM. Moreover, the IC50 with KI-12-0062 (setting [2]) is 14.5 µM; with LU-01-0027, 1.8 µM; in the assay on LU-01-0604, 7.8 µM; in the assay with OVCAR-3, 1.6 µM; in the assay on PC-3, 0.3 µM; in the assay on ME-21-0028 (setting [3]), 10.9 µM. The compound also returned an IC50 with ST-02-0173 of 15.5 µM.
